# Data from the supplement of paper PMC6045584.
# ± gives the standard deviation of the averaged measurements.
# What was measured:
# [1] = compound: CC1(C)CC(=O)c2c(C(F)(F)F)nn(-c3ccc(C(N)=O)c(N[C@H]4CC[C@H](OC(=O)CN)CC4)c3)c2C1 [SNX-5422]; assay: surviving fraction relative to DMSO-only wells; higher = less growth inhibition; conditions: exposure time: 5 days
# Summary of the method: (§1)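 Inhibitors were tested at 0.5, 1, 5, 10, 50, 100, 500 and 1000 nM, applied continuously for five days beginning 24 hours after log-phase tumour cells were seeded at 250–500 per well in 384-well plates. CellTiter-Glo luminescence served as the viability measure, expressed as surviving fraction against the median of DMSO-only wells. Each line, screened three times, was kept only with replicate Pearson r >0.7 and median Z' >0.3.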
# [2] = compound: Cn1cc(C2=Nc3cc(NC(=O)C(N)C4CCCCC4)cc4c3C2=CNNC4=O)cn1; assay: as above; conditions: exposure time: 5 days
# Summary of the method: as §1
test system,measurement,setting,value
MDAMB231 BREAST,surviving fraction,[1]; 0.5 nM,0.971 ± 0.021
same,surviving fraction,[1]; 1 nM,0.998 ± 0.034
same,surviving fraction,[1]; 5 nM,1.01 ± 0.035
same,surviving fraction,[1]; 10 nM,1.02 ± 0.018
same,surviving fraction,[1]; 50 nM,0.65 ± 0.032
same,surviving fraction,[1]; 100 nM,0.455 ± 0.03
same,surviving fraction,[1]; 500 nM,0.0989 ± 0.0031
same,surviving fraction,[1]; 1000 nM,0.0988 ± 0.0026
same,surviving fraction,[2]; 0.5 nM,0.95 ± 0.016
same,surviving fraction,[2]; 1 nM,0.949 ± 0.031
same,surviving fraction,[2]; 5 nM,0.964 ± 0.015
same,surviving fraction,[2]; 10 nM,0.953 ± 0.032
same,surviving fraction,[2]; 50 nM,0.908 ± 0.029
same,surviving fraction,[2]; 100 nM,0.896 ± 0.019
same,surviving fraction,[2]; 500 nM,0.544 ± 0.04
same,surviving fraction,[2]; 1000 nM,0.278 ± 0.01
HSSYII SYNOVIAL,surviving fraction,[1]; 0.5 nM,0.976 ± 0.035
same,surviving fraction,[1]; 1 nM,0.979 ± 0.042
same,surviving fraction,[1]; 5 nM,1.09 ± 0.04
same,surviving fraction,[1]; 10 nM,0.977 ± 0.0066
same,surviving fraction,[1]; 50 nM,0.23 ± 0.015
same,surviving fraction,[1]; 100 nM,0.152 ± 0.0056
same,surviving fraction,[1]; 500 nM,0.0738 ± 0.003
same,surviving fraction,[1]; 1000 nM,0.0662 ± 0.0051
same,surviving fraction,[2]; 0.5 nM,0.92 ± 0.0095
same,surviving fraction,[2]; 1 nM,0.96 ± 0.063
same,surviving fraction,[2]; 5 nM,0.885 ± 0.062
same,surviving fraction,[2]; 10 nM,0.863 ± 0.014
same,surviving fraction,[2]; 50 nM,0.135 ± 0.01
same,surviving fraction,[2]; 100 nM,0.046 ± 0.0044
same,surviving fraction,[2]; 500 nM,0.0388 ± 0.0032
same,surviving fraction,[2]; 1000 nM,0.0475 ± 0.0025
MDAMB436 BREAST,surviving fraction,[1]; 0.5 nM,0.91 ± 0.056
same,surviving fraction,[1]; 1 nM,0.873 ± 0.066
same,surviving fraction,[1]; 5 nM,0.892 ± 0.044
same,surviving fraction,[1]; 10 nM,0.903 ± 0.12
same,surviving fraction,[1]; 50 nM,0.471 ± 0.016
same,surviving fraction,[1]; 100 nM,0.305 ± 0.0098
same,surviving fraction,[1]; 500 nM,0.316 ± 0.013
same,surviving fraction,[1]; 1000 nM,0.326 ± 0.011
same,surviving fraction,[2]; 0.5 nM,0.847 ± 0.079
same,surviving fraction,[2]; 1 nM,0.911 ± 0.097
same,surviving fraction,[2]; 5 nM,0.871 ± 0.05
same,surviving fraction,[2]; 10 nM,0.852 ± 0.11
same,surviving fraction,[2]; 50 nM,0.813 ± 0.051
same,surviving fraction,[2]; 100 nM,0.577 ± 0.031
same,surviving fraction,[2]; 500 nM,0.284 ± 0.02
same,surviving fraction,[2]; 1000 nM,0.228 ± 0.011
MDAMB361 BREAST,surviving fraction,[1]; 0.5 nM,0.884 ± 0.064
same,surviving fraction,[1]; 1 nM,0.974 ± 0.14
same,surviving fraction,[1]; 5 nM,0.76 ± 0.043
same,surviving fraction,[1]; 10 nM,0.816 ± 0.037
same,surviving fraction,[1]; 50 nM,0.443 ± 0.025
same,surviving fraction,[1]; 100 nM,0.879 ± 0.2
same,surviving fraction,[1]; 500 nM,0.307 ± 0.0076
same,surviving fraction,[1]; 1000 nM,0.294 ± 0.015
same,surviving fraction,[2]; 0.5 nM,0.751 ± 0.014
same,surviving fraction,[2]; 1 nM,0.706 ± 0.065
same,surviving fraction,[2]; 5 nM,0.71 ± 0.023
same,surviving fraction,[2]; 10 nM,0.656 ± 0.061
same,surviving fraction,[2]; 50 nM,0.456 ± 0.028
same,surviving fraction,[2]; 100 nM,0.399 ± 0.032
same,surviving fraction,[2]; 500 nM,0.43 ± 0.013
same,surviving fraction,[2]; 1000 nM,0.49 ± 0.013
U2OS BONE,surviving fraction,[1]; 0.5 nM,1.04 ± 0.019
same,surviving fraction,[1]; 1 nM,1.06 ± 0.04
same,surviving fraction,[1]; 5 nM,1.08 ± 0.015
same,surviving fraction,[1]; 10 nM,1.06 ± 0.041
same,surviving fraction,[1]; 50 nM,0.644 ± 0.018
same,surviving fraction,[1]; 100 nM,0.257 ± 0.021
same,surviving fraction,[1]; 500 nM,0.066 ± 0.0035
same,surviving fraction,[1]; 1000 nM,0.0757 ± 0.0023
same,surviving fraction,[2]; 0.5 nM,1.06 ± 0.016
same,surviving fraction,[2]; 1 nM,1.08 ± 0.029
same,surviving fraction,[2]; 5 nM,1.1 ± 0.045
same,surviving fraction,[2]; 10 nM,1.08 ± 0.04
same,surviving fraction,[2]; 50 nM,1.04 ± 0.029
same,surviving fraction,[2]; 100 nM,0.999 ± 0.029
same,surviving fraction,[2]; 500 nM,0.201 ± 0.017
same,surviving fraction,[2]; 1000 nM,0.0873 ± 0.0068
NOS1 BONE,surviving fraction,[1]; 0.5 nM,1.1 ± 0.11
same,surviving fraction,[1]; 1 nM,1.08 ± 0.052
same,surviving fraction,[1]; 5 nM,1.16 ± 0.067
same,surviving fraction,[1]; 10 nM,0.947 ± 0.056
same,surviving fraction,[1]; 50 nM,0.451 ± 0.037
same,surviving fraction,[1]; 100 nM,0.276 ± 0.012
same,surviving fraction,[1]; 500 nM,0.113 ± 0.0076
same,surviving fraction,[1]; 1000 nM,0.117 ± 0.014
same,surviving fraction,[2]; 0.5 nM,1 ± 0.16
same,surviving fraction,[2]; 1 nM,0.948 ± 0.081
same,surviving fraction,[2]; 5 nM,1.11 ± 0.1
same,surviving fraction,[2]; 10 nM,1.05 ± 0.1
same,surviving fraction,[2]; 50 nM,0.813 ± 0.075
same,surviving fraction,[2]; 100 nM,0.872 ± 0.064
same,surviving fraction,[2]; 500 nM,0.339 ± 0.009
same,surviving fraction,[2]; 1000 nM,0.195 ± 0.013
CASKI CERVIX,surviving fraction,[1]; 0.5 nM,0.913 ± 0.016
same,surviving fraction,[1]; 1 nM,0.937 ± 0.021
same,surviving fraction,[1]; 5 nM,0.932 ± 0.049
same,surviving fraction,[1]; 10 nM,0.829 ± 0.074
same,surviving fraction,[1]; 50 nM,0.119 ± 0.02
same,surviving fraction,[1]; 100 nM,0.0603 ± 0.0035
same,surviving fraction,[1]; 500 nM,0.031 ± 0.0036
same,surviving fraction,[1]; 1000 nM,0.033
same,surviving fraction,[2]; 0.5 nM,0.918 ± 0.028
same,surviving fraction,[2]; 1 nM,0.962 ± 0.082
same,surviving fraction,[2]; 5 nM,0.92 ± 0.028
same,surviving fraction,[2]; 10 nM,0.949 ± 0.038
same,surviving fraction,[2]; 50 nM,0.511 ± 0.043
same,surviving fraction,[2]; 100 nM,0.251 ± 0.071
same,surviving fraction,[2]; 500 nM,0.057 ± 0.0095
same,surviving fraction,[2]; 1000 nM,0.0573 ± 0.0038
HELA CERVIX,surviving fraction,[1]; 0.5 nM,1.08 ± 0.049
same,surviving fraction,[1]; 1 nM,1.1 ± 0.031
same,surviving fraction,[1]; 5 nM,1.09 ± 0.071
same,surviving fraction,[1]; 10 nM,1.03 ± 0.028
same,surviving fraction,[1]; 50 nM,1.2 ± 0.016
same,surviving fraction,[1]; 100 nM,0.672 ± 0.081
same,surviving fraction,[1]; 500 nM,0.228 ± 0.028
same,surviving fraction,[1]; 1000 nM,0.113 ± 0.016
same,surviving fraction,[2]; 0.5 nM,1.1 ± 0.028
same,surviving fraction,[2]; 1 nM,1.1 ± 0.059
same,surviving fraction,[2]; 5 nM,1.11 ± 0.045
same,surviving fraction,[2]; 10 nM,1.01 ± 0.013
same,surviving fraction,[2]; 50 nM,1.11 ± 0.082
same,surviving fraction,[2]; 100 nM,1.15 ± 0.035
same,surviving fraction,[2]; 500 nM,1.15 ± 0.038
same,surviving fraction,[2]; 1000 nM,1.09 ± 0.046
NY BONE,surviving fraction,[1]; 0.5 nM,0.9907 ± 0.0074
same,surviving fraction,[1]; 1 nM,1.01 ± 0.04
same,surviving fraction,[1]; 5 nM,1.05 ± 0.045
same,surviving fraction,[1]; 10 nM,1.03 ± 0.047
same,surviving fraction,[1]; 50 nM,0.086 ± 0.0061
same,surviving fraction,[1]; 100 nM,0.128 ± 0.012
same,surviving fraction,[1]; 500 nM,0.0563 ± 0.0047
same,surviving fraction,[1]; 1000 nM,0.054 ± 0.0078
same,surviving fraction,[2]; 0.5 nM,1 ± 0.015
same,surviving fraction,[2]; 1 nM,0.984 ± 0.0061
same,surviving fraction,[2]; 5 nM,1.03 ± 0.024
same,surviving fraction,[2]; 10 nM,0.95 ± 0.042
same,surviving fraction,[2]; 50 nM,0.458 ± 0.014
same,surviving fraction,[2]; 100 nM,0.182 ± 0.014
same,surviving fraction,[2]; 500 nM,0.0577 ± 0.0055
same,surviving fraction,[2]; 1000 nM,0.0377 ± 0.0055
LNCAP PROSTATE,surviving fraction,[1]; 0.5 nM,0.905 ± 0.09
same,surviving fraction,[1]; 1 nM,0.969 ± 0.13
same,surviving fraction,[1]; 5 nM,0.79 ± 0.043
same,surviving fraction,[1]; 10 nM,0.774 ± 0.12
same,surviving fraction,[1]; 50 nM,0.19 ± 0.022
same,surviving fraction,[1]; 100 nM,0.124 ± 0.0057
same,surviving fraction,[1]; 500 nM,0.05 ± 0.004
same,surviving fraction,[1]; 1000 nM,0.06 ± 0.0072
same,surviving fraction,[2]; 0.5 nM,0.922 ± 0.12
same,surviving fraction,[2]; 1 nM,1.11 ± 0.11
same,surviving fraction,[2]; 5 nM,0.926 ± 0.14
same,surviving fraction,[2]; 10 nM,0.915 ± 0.15
same,surviving fraction,[2]; 50 nM,1.23 ± 0.052
same,surviving fraction,[2]; 100 nM,1.06 ± 0.12
same,surviving fraction,[2]; 500 nM,0.544 ± 0.024
same,surviving fraction,[2]; 1000 nM,0.287 ± 0.031
